Series [1] concerns the target T1, Rho-associated protein kinase 2 (Homo sapiens, UniProt O75116). Briefly: Inhibition of ROCK2.
The nature of series [2]: Inhibition of PKA.
For series [3], the target named is T1, Rho-associated protein kinase 2. Briefly: Inhibition of ROCK2 assessed as myosin light chain phosphorylation by cell-based assay.
Series [4] is described as follows: Metabolic stability in human liver microsomes. The format is ADME, Microsome. (In general: Liver microsomes are vesicles of endoplasmic reticulum, rich in cytochrome P450 enzymes.)
The next series has as its target CYP2C9 (Homo sapiens, UniProt P11712). Briefly: Inhibition of CYP2C9 at 10 uM. The format is ADME.
In a further series the target is CYP2D6 (Homo sapiens, UniProt P10635). Description: Inhibition of CYP2D6 at 10 uM. The format is ADME.
The target of another series is CYP3A4 (Homo sapiens, UniProt P08684). Briefly: Inhibition of CYP3A4 at 10 uM. The format is ADME.
In another series the target is T2, CYP1A2 (Homo sapiens, UniProt P05177).
T2 sequence (P05177 whole entry): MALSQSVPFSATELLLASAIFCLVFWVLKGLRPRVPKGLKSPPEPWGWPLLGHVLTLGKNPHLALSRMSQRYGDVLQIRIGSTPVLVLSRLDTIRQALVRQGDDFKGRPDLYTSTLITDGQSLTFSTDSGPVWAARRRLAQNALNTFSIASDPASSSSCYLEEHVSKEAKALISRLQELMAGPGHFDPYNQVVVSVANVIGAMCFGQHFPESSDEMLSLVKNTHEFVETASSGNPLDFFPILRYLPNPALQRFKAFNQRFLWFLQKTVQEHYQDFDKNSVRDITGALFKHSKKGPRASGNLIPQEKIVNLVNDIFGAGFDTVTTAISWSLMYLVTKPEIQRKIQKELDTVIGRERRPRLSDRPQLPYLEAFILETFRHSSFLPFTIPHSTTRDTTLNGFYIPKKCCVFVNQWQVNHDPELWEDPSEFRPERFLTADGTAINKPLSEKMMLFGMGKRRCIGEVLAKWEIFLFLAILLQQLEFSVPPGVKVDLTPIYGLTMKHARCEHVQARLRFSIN
Description: Inhibition of CYP1A2 at 10 uM. The format is ADME.

Series [5] addresses RAC-alpha serine/threonine-protein kinase (Homo sapiens, UniProt P31749). Briefly: Inhibition of Akt1.
A short description of series [6]: Inhibition of MRCK.
Series [7] is described as follows: Inhibition of p38 kinase.
Series [8] concerns the target Mitogen-activated protein kinase 8 (Homo sapiens, UniProt P45983). Description: Inhibition of JNK1.
In series [9] the target is Mitogen-activated protein kinase 10 (Homo sapiens, UniProt P53779). Briefly: Inhibition of JNK3.
Series [10] is described as follows: Clearance in rat at 1 mg/kg, iv or 2 mg/kg, po. The format is ADME, organism-based. The settings on record: in vivo.
The nature of series [11]: Volume of distribution at steady state in rat at 1 mg/kg, iv or 2 mg/kg, po. The format is ADME, organism-based. The settings on record: in vivo, read-out: Vdss.
Series [12] can be described thus: Half life in rat at 1 mg/kg, iv or 2 mg/kg, po. The format is ADME, organism-based. The note with it: in vivo.
A short description of series [13]: AUC in rat at 2 mg/kg, po. The format is ADME, organism-based. Set-up: dose 2 mg/kg, route oral. The note with it: plasma.
Series [14] in a line: Cmax in rat at 2 mg/kg, po. The format is ADME, organism-based. Set-up: dose 2 mg/kg, route oral. The settings on record: in vivo.
Series [15] is described as follows: Oral bioavailability in rat at 2 mg/kg. The settings on record: in vivo. The format is ADME, organism-based.
A short description of series [16]: Selectivity for ROCK2 over PKA.

The structures appear in SMILES notation. Bounds are passed on as bounds.

Chain of CYP2C9 (P11712 whole entry): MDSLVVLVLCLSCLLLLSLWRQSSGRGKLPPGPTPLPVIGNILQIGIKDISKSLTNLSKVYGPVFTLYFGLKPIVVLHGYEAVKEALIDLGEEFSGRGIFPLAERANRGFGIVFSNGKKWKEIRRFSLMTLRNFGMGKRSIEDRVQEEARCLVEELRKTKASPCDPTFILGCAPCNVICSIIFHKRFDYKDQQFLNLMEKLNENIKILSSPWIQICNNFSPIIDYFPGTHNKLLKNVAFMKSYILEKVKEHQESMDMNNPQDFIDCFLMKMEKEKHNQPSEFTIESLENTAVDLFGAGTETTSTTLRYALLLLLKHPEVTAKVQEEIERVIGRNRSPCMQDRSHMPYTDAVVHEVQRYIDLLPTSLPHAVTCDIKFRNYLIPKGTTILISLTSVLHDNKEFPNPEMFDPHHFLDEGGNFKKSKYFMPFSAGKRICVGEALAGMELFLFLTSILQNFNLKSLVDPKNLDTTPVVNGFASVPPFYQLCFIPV
Chain of CYP2D6 (P10635 whole entry): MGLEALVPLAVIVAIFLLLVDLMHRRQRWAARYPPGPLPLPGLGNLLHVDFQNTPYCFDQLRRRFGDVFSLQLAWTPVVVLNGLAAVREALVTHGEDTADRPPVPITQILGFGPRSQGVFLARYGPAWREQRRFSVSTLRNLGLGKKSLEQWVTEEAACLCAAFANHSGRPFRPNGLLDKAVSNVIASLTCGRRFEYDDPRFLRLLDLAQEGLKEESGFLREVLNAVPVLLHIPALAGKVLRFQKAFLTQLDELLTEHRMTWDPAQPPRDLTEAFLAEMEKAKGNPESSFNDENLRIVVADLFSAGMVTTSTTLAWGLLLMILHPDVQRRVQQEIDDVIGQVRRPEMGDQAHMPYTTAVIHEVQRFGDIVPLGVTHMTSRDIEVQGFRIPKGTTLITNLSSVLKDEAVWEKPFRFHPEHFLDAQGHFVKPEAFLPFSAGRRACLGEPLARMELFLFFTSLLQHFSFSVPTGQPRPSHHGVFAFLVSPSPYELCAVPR
T1 sequence (O75116 whole entry): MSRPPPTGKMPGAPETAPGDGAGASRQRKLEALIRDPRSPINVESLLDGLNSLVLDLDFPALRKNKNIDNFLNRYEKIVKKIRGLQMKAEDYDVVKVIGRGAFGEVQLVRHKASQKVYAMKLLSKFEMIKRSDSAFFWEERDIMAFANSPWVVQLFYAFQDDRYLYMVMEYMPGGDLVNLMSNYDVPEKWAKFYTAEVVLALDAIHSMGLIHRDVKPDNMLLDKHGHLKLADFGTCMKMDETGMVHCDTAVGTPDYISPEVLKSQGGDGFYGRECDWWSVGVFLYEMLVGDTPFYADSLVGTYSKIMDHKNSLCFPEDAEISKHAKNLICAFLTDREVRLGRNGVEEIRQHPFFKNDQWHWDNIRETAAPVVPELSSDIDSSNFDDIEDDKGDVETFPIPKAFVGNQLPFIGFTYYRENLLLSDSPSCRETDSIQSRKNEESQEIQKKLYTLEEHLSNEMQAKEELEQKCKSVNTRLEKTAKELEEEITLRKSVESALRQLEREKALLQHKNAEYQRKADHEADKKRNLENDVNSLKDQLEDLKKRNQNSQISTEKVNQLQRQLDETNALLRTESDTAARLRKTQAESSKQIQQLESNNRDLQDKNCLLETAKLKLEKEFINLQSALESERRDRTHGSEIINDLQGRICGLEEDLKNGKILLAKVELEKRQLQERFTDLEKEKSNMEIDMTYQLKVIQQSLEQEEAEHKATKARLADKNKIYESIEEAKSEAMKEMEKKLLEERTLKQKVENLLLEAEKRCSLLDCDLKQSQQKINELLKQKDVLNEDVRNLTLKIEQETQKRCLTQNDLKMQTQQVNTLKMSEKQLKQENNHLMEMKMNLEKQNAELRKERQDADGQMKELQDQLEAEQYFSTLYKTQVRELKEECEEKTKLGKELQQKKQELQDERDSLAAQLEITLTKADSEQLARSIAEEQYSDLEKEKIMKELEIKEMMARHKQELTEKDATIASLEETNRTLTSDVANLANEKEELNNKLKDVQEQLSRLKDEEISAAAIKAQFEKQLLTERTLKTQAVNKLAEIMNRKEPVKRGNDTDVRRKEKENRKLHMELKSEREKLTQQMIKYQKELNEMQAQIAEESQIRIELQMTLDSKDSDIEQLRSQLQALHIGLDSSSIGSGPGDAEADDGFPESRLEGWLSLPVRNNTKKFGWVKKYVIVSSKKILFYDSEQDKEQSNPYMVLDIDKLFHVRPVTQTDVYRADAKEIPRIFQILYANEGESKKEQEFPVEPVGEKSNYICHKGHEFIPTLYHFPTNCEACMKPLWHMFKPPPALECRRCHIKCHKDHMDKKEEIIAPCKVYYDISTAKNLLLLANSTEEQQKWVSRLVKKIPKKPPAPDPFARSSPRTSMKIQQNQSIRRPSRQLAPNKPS
Chain of CYP3A4 (P08684 whole entry): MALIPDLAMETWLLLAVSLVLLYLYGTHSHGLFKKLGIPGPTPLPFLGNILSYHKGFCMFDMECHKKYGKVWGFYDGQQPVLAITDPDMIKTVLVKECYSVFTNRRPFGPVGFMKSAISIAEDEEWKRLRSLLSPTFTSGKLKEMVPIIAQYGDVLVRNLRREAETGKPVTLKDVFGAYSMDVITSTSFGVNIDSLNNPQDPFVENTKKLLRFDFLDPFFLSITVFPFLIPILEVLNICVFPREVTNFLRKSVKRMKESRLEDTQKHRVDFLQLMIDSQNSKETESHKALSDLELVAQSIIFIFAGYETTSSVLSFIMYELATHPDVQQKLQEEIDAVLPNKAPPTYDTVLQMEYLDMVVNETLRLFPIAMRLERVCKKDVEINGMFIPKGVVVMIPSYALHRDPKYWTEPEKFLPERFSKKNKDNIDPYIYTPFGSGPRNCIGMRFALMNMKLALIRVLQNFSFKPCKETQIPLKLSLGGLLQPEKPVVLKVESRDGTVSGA
Chain of Mitogen-activated protein kinase 8 (P45983 whole entry): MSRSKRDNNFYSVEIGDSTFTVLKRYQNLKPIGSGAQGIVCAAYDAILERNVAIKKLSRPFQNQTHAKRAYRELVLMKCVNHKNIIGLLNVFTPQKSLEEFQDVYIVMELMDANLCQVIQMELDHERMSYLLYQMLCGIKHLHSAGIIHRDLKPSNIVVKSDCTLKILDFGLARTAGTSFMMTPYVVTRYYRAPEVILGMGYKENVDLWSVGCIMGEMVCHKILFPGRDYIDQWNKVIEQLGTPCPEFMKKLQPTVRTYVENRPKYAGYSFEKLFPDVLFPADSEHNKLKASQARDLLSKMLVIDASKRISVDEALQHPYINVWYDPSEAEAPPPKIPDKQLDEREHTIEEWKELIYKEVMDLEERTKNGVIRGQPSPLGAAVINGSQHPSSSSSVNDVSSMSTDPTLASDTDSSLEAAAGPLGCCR
Chain of RAC-alpha serine/threonine-protein kinase (P31749 whole entry): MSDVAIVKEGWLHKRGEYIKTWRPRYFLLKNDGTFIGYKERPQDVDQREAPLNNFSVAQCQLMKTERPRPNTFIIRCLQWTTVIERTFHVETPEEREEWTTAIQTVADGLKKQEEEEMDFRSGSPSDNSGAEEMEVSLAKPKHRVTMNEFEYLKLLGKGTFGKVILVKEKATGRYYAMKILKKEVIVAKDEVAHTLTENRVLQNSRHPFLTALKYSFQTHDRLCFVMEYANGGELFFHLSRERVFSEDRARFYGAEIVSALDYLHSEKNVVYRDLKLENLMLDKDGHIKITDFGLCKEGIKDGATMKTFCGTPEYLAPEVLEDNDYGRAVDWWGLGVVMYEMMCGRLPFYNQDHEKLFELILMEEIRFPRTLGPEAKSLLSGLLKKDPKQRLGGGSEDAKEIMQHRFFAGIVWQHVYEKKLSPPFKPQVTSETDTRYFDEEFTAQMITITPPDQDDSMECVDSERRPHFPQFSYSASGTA
Chain of Mitogen-activated protein kinase 10 (P53779 whole entry): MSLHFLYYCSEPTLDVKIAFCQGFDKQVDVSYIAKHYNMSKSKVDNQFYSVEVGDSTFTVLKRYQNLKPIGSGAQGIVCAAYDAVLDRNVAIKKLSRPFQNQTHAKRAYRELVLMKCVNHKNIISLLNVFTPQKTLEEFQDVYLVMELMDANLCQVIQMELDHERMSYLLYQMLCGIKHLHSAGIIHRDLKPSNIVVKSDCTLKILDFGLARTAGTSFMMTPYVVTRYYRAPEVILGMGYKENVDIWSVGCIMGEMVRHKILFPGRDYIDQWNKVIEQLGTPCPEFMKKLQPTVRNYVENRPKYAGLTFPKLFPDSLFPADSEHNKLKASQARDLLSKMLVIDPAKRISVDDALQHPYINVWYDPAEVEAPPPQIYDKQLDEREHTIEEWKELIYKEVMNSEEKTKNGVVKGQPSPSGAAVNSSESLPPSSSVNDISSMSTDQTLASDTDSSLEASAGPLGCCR

Take `COC(=O)c1ccc2c(c1)CC(c1nc3ccc(-c4ccnc(N)n4)cc3o1)CO2` (stereo unspecified): the midpoint of inhibition in series [1], the IC50, lay at 24 nM.
Turning to `COC(=O)c1ccc2c(c1)CC(c1nc3ccc(-c4ccnc(N)n4)cc3[nH]1)CO2` (stereo unspecified), the figures for the IC50 in series [1], in series [2] and in [3] were 6 nM, 10200 nM and 271 nM, respectively. In series [4], this compound came in with a half-life of 18 min.
In the case of `Nc1nccc(-c2ccc3nc(C4COc5ccccc5C4)[nH]c3c2)n1` (stereo unspecified), the IC50 in series [1] was 8 nM; in [2] it was 198 nM; in series [3], 66 nM. Further, the half-life in series [4] came to 44 min. The inhibition at 10 µM was 13% on CYP2C9, 15% against CYP2D6, -3% against CYP3A4 and 31% against CYP1A2.
On to `COc1ccc2c(c1)CC(c1nc3c(F)cc(-c4ccnc(N)n4)cc3[nH]1)CO2` (stereo unspecified), for which the IC50 in series [1] was less than 1 nM; in [2], 397 nM; in series [3], less than 6 nM; in [5], 5000 nM; in series [6] it was 1100 nM; in series [7], more than 20000 nM. The IC50 in [8] was 14100 nM; in series [9], 16800 nM. The clearance in [10] was 12 mL/min/kg. Also, the Vd in series [11] was found to be 0.63 L/kg. The compound further gave a half-life in series [12] of 84 min. For the same compound, the AUC in series [13] worked out at 2.2 µM·h. This compound yielded a Cmax in series [14] of 740 nM. Also, in series [15], the bioavailability is 29%.
As to `Nc1nccc(-c2ccc3nc(C4COc5ccc(F)cc5C4)oc3c2)n1` (stereo unspecified), the IC50 in [1] stood at 15 nM; in series [2], 2910 nM; in series [3], 28 nM. For the same compound, in series [4], the half-life is 91 min.
On to `Cc1[nH]ncc1-c1ccc2nc(C3COc4ccccc4C3)[nH]c2c1` (stereo unspecified), for which the IC50 was determined as 9 nM in series [1] and 122 nM in series [2]. Also, in [4], the half-life came out at 30 min.
As to `Cc1[nH]ncc1-c1ccc2nc(C3COc4ccccc4C3)oc2c1` (stereo unspecified), the figures for the IC50 in series [1], in [2] and in [3] were 9 nM, 778 nM and 533 nM, respectively. The half-life in [4] was 70 min.
The compound `CC(C)Oc1ccc2c(c1)CC(c1nc3ccc(-c4ccnc(N)n4)cc3o1)CO2` (stereo unspecified) showed an IC50 in series [1] of 294 nM.
In the case of `c1ccc2c(c1)CC(c1nc3ccc(-c4cn[nH]c4)cc3[nH]1)CO2` (stereo unspecified), the figures for the IC50 in series [1], in [2] and in series [3] were 27 nM, 168 nM and 86 nM, respectively. In series [4], this compound returned a half-life of 20 min. Also, the inhibition at 10 µM was 84% at CYP2C9, 84% at CYP2D6, 47% at CYP3A4 and 51% on CYP1A2.
Turning to `Nc1nccc(-c2ccc3nc(C4COc5ccc(C(=O)NCc6ccccc6)cc5C4)[nH]c3c2)n1` (stereo unspecified), the IC50 was less than 1 nM in series [1], 75 nM in series [2] and 23 nM in series [3]. Further, in [4], the half-life worked out at 25 min.
Consider `c1ccc2c(c1)CC(c1nc3ccc(-c4ccncc4)cc3[nH]1)CO2` (stereo unspecified), for which the concentration for half-maximal inhibition (IC50) was 2 nM in series [1], 317 nM in [2] and less than 6 nM in series [3]. Besides, the half-life in [4] turned out to be 29 min. For the same compound, the inhibition at 10 µM is 95% against CYP2C9, 92% against CYP2D6, 96% against CYP3A4 and 90% against CYP1A2.
Consider `Nc1nccc(-c2ccc3nc(C4COc5ccccc5C4)oc3c2)n1` (stereo unspecified), for which the values for the half-maximal inhibitory concentration (IC50) in [1] and in [2] were 27 nM and 1340 nM, respectively. Besides, the half-life in [4] was determined as 57 min. Moreover, the inhibition at 10 µM is -8% against CYP2C9, -4% against CYP2D6, -6% at CYP3A4 and 0% against CYP1A2.
Regarding `Nc1nccc(-c2ccc3nc(C4COc5ccc(C(=O)NC6CC6)cc5C4)[nH]c3c2)n1` (stereo unspecified), the results for the half-maximal inhibitory concentration (IC50) in [1], in series [2] and in [3] were less than 1 nM, 669 nM and 212 nM, respectively. Further, the half-life in series [4] came out at 79 min.
In the case of `COc1ccc2c(c1)CC(c1nc3ccc(-c4ccnc(N)n4)cc3o1)CO2` (stereo unspecified), the values for the IC50 in series [1] and in series [3] were 2 nM and 46 nM, respectively. For the same compound, the half-life in [4] was 34 min; in series [12], 156 min. In series [10], this compound returned a clearance of 8.4 mL/min/kg. The Vd in series [11] was determined as 1.6 L/kg. The compound also returned an AUC in series [13] of 6.6 µM·h. This compound also displayed a Cmax in series [14] of 970 nM. This compound came in with a bioavailability in series [15] of 63%. The compound further registered a fold change (FC) in series [16] of 950.
As to `Nc1nccc(-c2ccc3nc(C4COc5ccc(F)cc5C4)[nH]c3c2)n1` (stereo unspecified), the results for the 50% inhibitory concentration (IC50) in series [1] and in series [2] were 6 nM and 270 nM, respectively. The compound also yielded a half-life in series [4] of 45 min.
In the case of `c1ccc2c(c1)CC(c1nc3ccc(-c4cn[nH]c4)cc3o1)CO2` (stereo unspecified), the IC50 in series [1] worked out at 21 nM; in series [2], 1210 nM; in [3] it was 330 nM. The compound further displayed a half-life in series [4] of 40 min. The inhibition at 10 µM amounted to 80% against CYP2C9, 41% against CYP2D6, 15% on CYP3A4 and 27% at CYP1A2.
Take `Cc1ccc2c(c1)CC(c1nc3ccc(-c4ccnc(N)n4)cc3o1)CO2` (stereo unspecified): the values for the IC50 in series [1] and in series [2] were 78 nM and 6390 nM, respectively. The half-life in series [4] came to 25 min.
Take `COc1ccc2c(c1)CC(c1nc3ccc(-c4ccnc(N)n4)cc3[nH]1)CO2` (stereo unspecified): the IC50 in [2] stood at 602 nM; in [3], 99 nM. Further, the half-life is 28 min in series [4] and 138 min in series [12]. This compound also gave a clearance in series [10] of 17 mL/min/kg. In [11], the Vd is 0.89 L/kg. For the same compound, the AUC in [13] was found to be 1.9 µM·h. This compound had a Cmax in [14] of 900 nM. Besides, the bioavailability in [15] was 35%. The fold change (FC) in series [16] is 240.
In the case of `CC(C)Oc1ccc2c(c1)CC(c1nc3ccc(-c4ccnc(N)n4)cc3[nH]1)CO2` (stereo unspecified), the IC50 in series [1] amounted to 296 nM; in series [2], 6380 nM.

For orientation: IC50 means the concentration needed to halve the response being measured. In general, half-life refers to the time needed for the level to fall by half in the phase considered. A high value points to slow decline. As usually defined, the inhibition is the change of the read-out against control, counted positive when it falls. The term AUC denotes the area under the concentration-time curve, a measure of exposure. Low values mean low exposure, high ones high exposure. Usually Cmax stands for the peak of the concentration-time curve. Usually bioavailability stands for the share of a dose that reaches the circulation, judged against a reference dose that is usually intravenous. A high value points to good availability.
